Here are results for 7 compounds from patent publication US20250262241A1, “METHODS TO IMPROVE STABILITY OF VIRUS TRANSDUCTION OF y8 T CELLS AND APPLICATIONS THEREOF” (UNICET BIOTECH CO. LLC., priority 2021, published 2025).

Data set [1] concerns γδ2 T cells. Description: CAR (B7H3) related lentivirus transduction of γδ2 T cells with small inhibitors: transduction rate. Format: cell-based, human. Here is the method: VSV-G pseudotyped lentiviral vectors were applied in this method. 1×10^7 293T cells were plated into a poly-D-lysine coated 100 mm dish. Next day the cells were transfected with 6 μg of pCDH-EF1-MCS-T2A-copGFP plasmid (Addgene, Plasmid #72263) or pCDH-EF1-CAR-T2A-copGFP plasmid modified from pCDH-EF1-MCS-T2A-copGFP, 4 μg of pspAx2 (Addgene, Plasmid #12260), 2 μg of pCMV-VSV-G (Addgene, Plasmid #8454) using 30 ug PEI transfection regents. After 8 hours of transfection, the cell culture medium was changed. The supernatant were collected 48 hours and 72 hours later. Concentrated the virus with Lenti-X™ Concentrator (Takara) and monitored the virus titers by transduction of 293T cells and stored the concentrated virus in −80° C. until further use.
(§1) For lentivirus transduction, 1×10^CFU lentivirus diluted in 200 ul PBS were added in a 24-well plate which were pre-coated with RetroNectin reagent (Takara) and centrifugated by 2,000 g for 2 hours at 32° C. After centrifugation, removed the supernatant and washed the plate with PBS three times slightly.
For the virus transduction of γδ2 T cells, seeded 1×10^PBMCs which were in vitro cultured after 48 hours in the γδ2 T cell culture medium mentioned above (Gibco serum free medium with rhIL-2 and ZOL). Added or not small inhibitors and mixed well and concentrated the cells by 800 g for 10 mins at 32° C. The plates were incubated at 37° C., 5% CO2. Discarded the small inhibitors regent by changing the cell culture medium 24 hours later.
Calculate the cell number by an automated cell counter and the transduction rate (GFP positive rate) was analyzed by flow cytometry every 2 to 3 days. The transduction rate was monitored in the gate of γδ2 or γδ1 T cells.

Data set [2] relates to γδ2 T cells. It is filed as cell-based, human. As for the experimental part: (§2) The plates were incubated at 37° C., 5% CO2.
For the next data set, the system named is γδ1 T cells. In words: CAR related lentivirus transduction of γδ1 T cells with small inhibitors. Format: cell-based, human. The conditions noted are these: control finally around 2%. Here is the method: as §1, §2
To test the application of these small molecule on improving the transduction rate of δδ1 T cells. We evaluated the transduction rate of δδ1 T cells with/without different dosage of small molecules.

The target of data set [3] is ubiquitin-specific protease USP7 (Homo sapiens, UniProt Q93009). The conditions noted are these: cited from earlier work.
ubiquitin-specific protease USP7, sequence (Q93009 whole entry): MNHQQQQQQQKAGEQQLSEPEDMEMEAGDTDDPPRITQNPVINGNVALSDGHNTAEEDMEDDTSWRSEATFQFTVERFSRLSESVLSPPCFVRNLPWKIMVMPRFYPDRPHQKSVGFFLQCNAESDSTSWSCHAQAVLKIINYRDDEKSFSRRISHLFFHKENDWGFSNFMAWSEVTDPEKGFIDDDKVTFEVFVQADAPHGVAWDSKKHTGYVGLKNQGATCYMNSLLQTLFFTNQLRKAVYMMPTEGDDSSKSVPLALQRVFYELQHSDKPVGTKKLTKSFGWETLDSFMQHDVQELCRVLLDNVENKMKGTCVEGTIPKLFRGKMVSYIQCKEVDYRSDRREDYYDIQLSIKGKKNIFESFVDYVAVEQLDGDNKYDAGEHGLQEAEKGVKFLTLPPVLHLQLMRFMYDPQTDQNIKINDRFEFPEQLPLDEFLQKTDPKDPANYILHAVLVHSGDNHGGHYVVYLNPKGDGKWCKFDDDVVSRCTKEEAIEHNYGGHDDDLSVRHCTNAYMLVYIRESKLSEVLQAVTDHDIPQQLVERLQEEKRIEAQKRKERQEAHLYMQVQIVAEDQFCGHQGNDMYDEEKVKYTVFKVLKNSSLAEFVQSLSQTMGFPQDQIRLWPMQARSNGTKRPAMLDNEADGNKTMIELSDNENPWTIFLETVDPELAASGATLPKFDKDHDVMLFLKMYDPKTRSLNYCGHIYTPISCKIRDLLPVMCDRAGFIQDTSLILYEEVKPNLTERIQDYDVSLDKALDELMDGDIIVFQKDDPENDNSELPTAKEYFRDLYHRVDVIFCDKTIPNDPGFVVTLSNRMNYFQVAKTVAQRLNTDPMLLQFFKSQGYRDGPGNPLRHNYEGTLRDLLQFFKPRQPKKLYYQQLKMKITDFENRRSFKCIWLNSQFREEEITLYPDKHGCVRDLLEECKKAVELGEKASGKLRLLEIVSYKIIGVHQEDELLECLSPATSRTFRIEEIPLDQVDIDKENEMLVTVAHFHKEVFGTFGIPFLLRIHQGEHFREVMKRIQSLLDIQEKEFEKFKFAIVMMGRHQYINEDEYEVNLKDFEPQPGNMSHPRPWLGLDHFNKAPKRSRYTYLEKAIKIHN
For data set [4], the target named is T1, ubiquitin-specific protease USP21 (Homo sapiens, UniProt Q9UK80).
T1 sequence (Q9UK80 1-565): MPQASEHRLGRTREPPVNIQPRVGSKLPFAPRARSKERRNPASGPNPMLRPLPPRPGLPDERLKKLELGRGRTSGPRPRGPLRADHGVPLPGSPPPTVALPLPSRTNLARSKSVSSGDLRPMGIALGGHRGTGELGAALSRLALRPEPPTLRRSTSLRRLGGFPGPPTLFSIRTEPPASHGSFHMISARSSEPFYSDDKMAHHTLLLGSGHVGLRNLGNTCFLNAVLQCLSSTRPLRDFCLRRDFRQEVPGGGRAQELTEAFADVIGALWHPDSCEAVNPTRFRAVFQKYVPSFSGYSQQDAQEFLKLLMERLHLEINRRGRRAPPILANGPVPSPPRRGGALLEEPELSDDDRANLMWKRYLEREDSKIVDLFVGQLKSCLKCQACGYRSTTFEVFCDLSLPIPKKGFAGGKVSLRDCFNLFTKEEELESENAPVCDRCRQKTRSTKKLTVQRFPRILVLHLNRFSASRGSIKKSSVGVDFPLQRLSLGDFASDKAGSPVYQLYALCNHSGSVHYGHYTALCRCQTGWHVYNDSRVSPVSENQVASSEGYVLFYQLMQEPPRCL
As to conditions: cited from earlier work.

Read-outs that look alike come from different tables or passages of the source.

`O=C(Nc1nc2ccccc2n1CCN1CCOCC1)c1cccc([N+](=O)[O-])c1` [IRAK1/4 Inhibitor I]: the “effect on transduction rate” value with γδ2 T cells [1] (0.03 uM to 3 uM) was “enhance the transduction rate in a dosage dependent manner”. Moreover, in the data set with γδ2 T cells [1] (3 uM, control around 5% at Day10), the transduction rate entry was “higher than 35%”. The cell growth entry with γδ2 T cells [2] (0.03 uM to 3 uM) is recorded as “did not impair the cell growth”. For the same compound, in the data set on γδ1 T cells (0.3 uM), the “effect on transduction rate of γδ1 T cells” value (shortened to “effect … of γδ1 T cells”) was “could improve the transduction rate”.
In general, IC50 refers to the concentration at which inhibition is half-maximal. As for `Cc1ccc(S(=O)(=O)/C=C/C#N)cc1` [BAY11-7082], in the data set on γδ2 T cells [1] (0.5 uM to 50 uM), the “effect on transduction rate” value is on record as “enhance the transduction rate in a dosage dependent manner”. The transduction rate result with γδ2 T cells [1] (50 uM, control around 5% at Day10) is reported as “higher than 70%”. In the data set on γδ2 T cells [2] (0.5 uM to 50 uM, higher dosage, less total cell number), the cell growth result is recorded as “impaired the cell growth in a dosage dependent manner”. In addition, the “effect … of γδ1 T cells” value in the data set with γδ1 T cells (50 uM) was “could improve the transduction rate”. In addition, the IC50 was 0.19 µM in data set [3] and 0.96 µM in data set [4].
Take `COc1cc(/C=C/C(=O)CC(=O)/C=C/c2ccc(O)c(OC)c2)ccc1O` [Curcumin]: the transduction rate entry with γδ2 T cells [1] (10 uM, day 10, control around 5%) is “higher than 20%”. Besides, the “effect on transduction rate” value is “slightly enhance the transduction rate” in the data set with γδ2 T cells [1] (100 uM (highest dosage)) and “did not enhance the transduction rate” with γδ2 T cells [1] (luM (low dosage)). Besides, the cell growth result in the data set on γδ2 T cells [2] (10 uM) is listed as “inhibited the cell growth slightly”; in the data set on γδ2 T cells [2] (100 uM), “significantly impaired the cell growth”; in the data set with γδ2 T cells [2] (luM (low dosage)), “enhanced the cell growth”. For the same compound, the “effect … of γδ1 T cells” value in the data set on γδ1 T cells (10 uM) is listed as “could improve the transduction rate”.
Regarding `Nc1ncc2[nH]cnc2n1` [2-Aminopurine], in the data set with γδ2 T cells [1] (5 uM to 500 uM), the “effect on transduction rate” value is “enhance the transduction rate in a dosage dependent manner”. Also, in the data set with γδ2 T cells [1] (500 uM, control around 5% at Day10), the transduction rate entry is “around 60%”. For the same compound, the cell growth result with γδ2 T cells [2] (5 uM to 500 uM) is recorded as “did not impair the cell growth”. The “effect … of γδ1 T cells” value with γδ1 T cells (500 uM) is listed as “could improve the transduction rate”.
On to `C[C@@H]1C[C@H]2[C@@H]3CCC4=CC(=O)C=C[C@]4(C)[C@@]3(F)[C@@H](O)C[C@]2(C)[C@@]1(O)C(=O)CO` [Dexamethasone], for which the transduction rate result in the data set with γδ2 T cells [1] (6.4 uM, control around 5% at Day10) was “higher than 25%”. Besides, the cell growth result with γδ2 T cells [2] (0.064 uM to 6.4 uM) was “did not impair the cell growth”.
Take `CC(C)C[C@H](NC(=O)[C@H](Cc1ccccc1)NC(=O)c1cnccn1)B(O)O` [Bortezomib]: the transduction rate with γδ2 T cells [1] (0.04 uM, control around 5% at Day10) is ~50%; in the data set on γδ2 T cells [1] (0.4 uM and 4 uM, control around 5% at Day10), “higher than 20%”. The cell growth entry with γδ2 T cells [2] (0.04 uM, 0.4 uM, 4 uM) is reported as “impaired the cell growth in a dosage dependent manner”. Further, in the data set with γδ2 T cells [2] (0.4 uM and 4 uM), the cell number result is on record as “significantly cell number loss”. Besides, the “effect … of γδ1 T cells” value in the data set on γδ1 T cells (0.04 μM, 0.4 μM or 4 μM) is recorded as “All the molecules except for Bortezomib could improve the transduction rate”.
Take `COc1cc(O)c2c(c1)/C=C/C[C@H](O)[C@H](O)C(=O)/C=C\C[C@H](C)OC2=O` [(5Z)-7-Oxozeaenol]: the transduction rate result in the data set with γδ2 T cells [1] (0.6 uM, control around 5% at Day10) was “higher than 20%”; in the data set with γδ2 T cells [1] (6 uM, control around 5% at Day10), “higher than 30%”. In the data set on γδ2 T cells [1] (60 uM compared with 6 uM), the “effect on transduction rate” value was “did not perform better to improve the transduction rate”. Further, the cell growth entry in the data set on γδ2 T cells [2] (0.6 uM and 6 uM) is on record as “did not influence the cell growth”; in the data set on γδ2 T cells [2] (60 uM compared with 6 uM) it was “impaired the cell growth”. For the same compound, the “effect … of γδ1 T cells” value with γδ1 T cells (6 uM) is “could improve the transduction rate”.
